Entries after “also recorded” stand apart in the source; their conditions may differ.
Assays:
[1] = test system: sleep-deprived healthy volunteers; experiment: Safety/tolerability of a single dose in sleep-deprived healthy adults; type: in vivo, human
Procedure: (§1) During the day before dosing on Day 1, participants were administered the KSS at scheduled timepoints. A practice MWT session was performed on Day 1 treatment period 1 (only once during the entire study) to familiarize subjects with the procedures. Study drug was administered in the clinic in the evening on Day 1 of each treatment period. Subjects underwent the MWT and KSS at specified timepoints after the start of the infusion. Subjects were required to stay awake between the MWT tests. Following completion of the IV infusion on Day 2, subjects underwent an additional MWT test. When the final MWT test and cognitive testing were completed, subjects were allowed to sleep (recovery sleep) for approximately 6 hours. PSG recording was collected during this time. Subjects were discharged from the unit after completion on Day 2 with continuing actigraphy upon discharge (to begin on Day −6 before the next treatment period). The interval between each subsequent treatment period was at least 7 days to ensure that the subject's circadian rhythm had returned to a normal cycle. Subject's vital signs, including BP, were monitored during the dosing and testing period. Blood samples for determination of Compound A plasma concentrations were collected at specified timepoints on Days 1 and 2 of each treatment period. Subjects completed the Columbia-Suicide Severity Rating Scale (C-SSRS) during screening, before study drug administration, and before discharge on Day 2 of each treatment period.
Safety endpoints: adverse events (AEs), physical examinations, vital signs, 12-lead electrocardiograms (ECGs), clinical laboratory evaluations (hematology, blood chemistry, and urinalysis), drug-liking visual analogue scale, and Profile of Mood States.

[2] = test system: sleep-deprived healthy volunteers; experiment: Karolinska Sleepiness Scale (KSS) in sleep-deprived healthy volunteers; type: in vivo, human
Procedure: as §1
Secondary endpoints: • PK parameters calculated from plasma concentrations of Compound A. • Scores for sleepiness on the Karolinska Sleepiness Scale (KSS).
The secondary efficacy endpoint was sleepiness/alertness as assessed by KSS at 14, 10, 6, and 2 hours predose (approximately between 7:45 AM to 7:45 PM); 2, 2.75, 4.75, 6.75, and 8.75 hours post infusion start (approximately between mid-night to 7 AM in the morning); and at 1.75 hours post infusion end. A higher value indicates more sleepiness, a lower value indicates more alertness. Prior to infusion, there were no statistically significant differences at any time point of observation in KSS score for Compound A 44 and 112 mg treatments when compared to placebo. […] On the average, for modafinil and Compound A 44 and 112 mg, there were about 1.6 to 3.7 points increase in the KSS postdose/the infusion start, relative to that prior to dosing during the daytime. However, for placebo, the increase in the average KSS is 4.9.

[3] = Compound A 44 mg, 1.75 HOURS POST INFUSION END
[4] = Compound A 44 mg, 2 HOURS PREDOSE
[5] = Compound A 44 mg, 2.75 HOURS POST INFUSION START
[6] = Compound A 44 mg, 4.75 HOURS POST INFUSION START
[7] = Compound A 44 mg, 6 HOURS PREDOSE
[8] = Compound A 44 mg, 6.75 HOURS POST INFUSION START
[9] = Compound A 44 mg, 8.75 HOURS POST INFUSION START
[10] = Compound A 44 mg, 10 HOURS PREDOSE
[11] = Compound A 44 mg, 14 HOURS PREDOSE
[12] = Compound A 112 mg, 1.75 HOURS POST INFUSION END
[13] = Compound A 112 mg, 2 HOURS PREDOSE
[14] = Compound A 112 mg, 2.75 HOURS POST INFUSION START
[15] = Compound A 112 mg, 4.75 HOURS POST INFUSION START
[16] = Compound A 112 mg, 6 HOURS PREDOSE
[17] = Compound A 112 mg, 6.75 HOURS POST INFUSION START
[18] = Compound A 112 mg, 8.75 HOURS POST INFUSION START
[19] = Compound A 112 mg, 10 HOURS PREDOSE
[20] = Compound A 112 mg, 14 HOURS PREDOSE
[21] = HD: Compound A 112 mg, 1.75 HOURS POST INFUSION END
[22] = HD: Compound A 112 mg, 2 HOURS PREDOSE
[23] = HD: Compound A 112 mg, 2.75 HOURS POST INFUSION START
[24] = HD: Compound A 112 mg, 4.75 HOURS POST INFUSION START
[25] = HD: Compound A 112 mg, 6 HOURS PREDOSE
[26] = HD: Compound A 112 mg, 6.75 HOURS POST INFUSION START
[27] = HD: Compound A 112 mg, 8.75 HOURS POST INFUSION START
[28] = HD: Compound A 112 mg, 10 HOURS PREDOSE
[29] = HD: Compound A 112 mg, 14 HOURS PREDOSE
[30] = HD: Compound A 112 mg, DELTA: AVERAGE POST - AVERAGE PRIOR
[31] = LD: Compound A 44 mg, 1.75 HOURS POST INFUSION END
[32] = LD: Compound A 44 mg, 2 HOURS PREDOSE
[33] = LD: Compound A 44 mg, 2.75 HOURS POST INFUSION START
[34] = LD: Compound A 44 mg, 4.75 HOURS POST INFUSION START
[35] = LD: Compound A 44 mg, 6 HOURS PREDOSE
[36] = LD: Compound A 44 mg, 6.75 HOURS POST INFUSION START
[37] = LD: Compound A 44 mg, 8.75 HOURS POST INFUSION START
[38] = LD: Compound A 44 mg, 10 HOURS PREDOSE
[39] = LD: Compound A 44 mg, 14 HOURS PREDOSE
[40] = LD: Compound A 44 mg, DELTA: AVERAGE POST - AVERAGE PRIOR

COC(=O)N1CCC[C@H](NS(C)(=O)=O)[C@@H]1CO[C@H]1CC[C@@H](c2ccccc2)CC1 [Compound A, methyl (2R,3S)-3-((methylsulfonyl)amino)-2-(((cis-4-phenylcyclohexyl)oxy)methyl)piperidine-1-carboxylate]
Effect on BP and pulse ([1]; Compound A 44 mg): minimal effect | Drug-related TEAE of liver function test increased, number of subjects ([1]; Compound A 112 mg, mild intensity): 1 subject | Serious adverse events (SAEs) ([1]; Compound A 44 and 112 mg treatments): no SAEs were observed | Changes in DBP versus Compound A plasma concentration ([1]; change from time-matched baseline): appeared to increase with increasing concentration | Tolerability ([1]; single dose 44 mg or 112 mg, slow infusion over 9 hours, healthy volunteers): well-tolerated with no major safety concerns; also recorded: well tolerated overall | Difference between average KSS score post and prior to infusion start, LS Mean (SE) ([2]; Compound A 44 mg): 3.68 (0.332) | KSS Max [2, 3]: 9 | KSS Mean (SD) [2, 3]: 8.4 (0.86) | KSS Median [2, 3]: 9.0 | KSS Min [2, 3]: 6 | KSS Max [2, 4]: 9 | KSS Mean (SD) [2, 4]: 4.0 (2.30) | KSS Median [2, 4]: 3.5 | KSS Min [2, 4]: 1 | KSS Max [2, 5]: 8 | KSS Mean (SD) [2, 5]: 4.8 (1.92) | KSS Median [2, 5]: 4.5 | KSS Min [2, 5]: 1 | KSS Max [2, 6]: 9 | KSS Mean (SD) [2, 6]: 6.4 (2.12) | KSS Median [2, 6]: 6.5 | KSS Min [2, 6]: 2 | KSS Max [2, 7]: 7 | KSS Mean (SD) [2, 7]: 2.8 (1.59) | KSS Median [2, 7]: 2.5 | KSS Min [2, 7]: 1 | KSS Max [2, 8]: 9 | KSS Mean (SD) [2, 8]: 7.8 (0.94) | KSS Median [2, 8]: 8.0 | KSS Min [2, 8]: 6 | KSS Max [2, 9]: 9 | KSS Mean (SD) [2, 9]: 8.1 (1.00) | KSS Median [2, 9]: 8.0 | KSS Min [2, 9]: 5 | KSS Max [2, 10]: 7 | KSS Mean (SD) [2, 10]: 2.8 (1.40) | KSS Median [2, 10]: 3.0 | KSS Min [2, 10]: 1 | KSS Max [2, 11]: 6 | KSS Mean (SD) [2, 11]: 2.8 (1.15) | KSS Median [2, 11]: 3.0 | KSS Min [2, 11]: 1 | Difference between average KSS score post and prior to infusion start, LS Mean (SE) ([2]; Compound A 112 mg): 1.64 (0.332) | KSS Max [2, 12]: 9 | KSS Mean (SD) [2, 12]: 8.0 (1.57) | KSS Median [2, 12]: 8.5 | KSS Min [2, 12]: 3 | KSS Max [2, 13]: 6 | KSS Mean (SD) [2, 13]: 3.4 (1.76) | KSS Median [2, 13]: 3.0 | KSS Min [2, 13]: 1 | KSS Max [2, 14]: 8 | KSS Mean (SD) [2, 14]: 3.2 (2.02) | KSS Median [2, 14]: 2.0 | KSS Min [2, 14]: 1 | KSS Max [2, 15]: 9 | KSS Mean (SD) [2, 15]: 3.8 (1.82) | KSS Median [2, 15]: 3.0 | KSS Min [2, 15]: 1 | KSS Max [2, 16]: 4 | KSS Mean (SD) [2, 16]: 2.5 (0.92) | KSS Median [2, 16]: 3.0 | KSS Min [2, 16]: 1 | KSS Max [2, 17]: 9 | KSS Mean (SD) [2, 17]: 5.2 (1.72) | KSS Median [2, 17]: 5.0 | KSS Min [2, 17]: 2 | KSS Max [2, 18]: 9 | KSS Mean (SD) [2, 18]: 6.1 (1.95) | KSS Median [2, 18]: 6.0 | KSS Min [2, 18]: 3 | KSS Max [2, 19]: 7 | KSS Mean (SD) [2, 19]: 2.5 (1.47) | KSS Median [2, 19]: 2.0 | KSS Min [2, 19]: 1 | KSS Max [2, 20]: 7 | KSS Mean (SD) [2, 20]: 3.3 (1.74) | KSS Median [2, 20]: 3.0 | KSS Min [2, 20]: 1 | KSS Sleepy/Alert LS Mean [2, 21]: 8.01 | KSS Sleepy/Alert LS Mean Difference vs Placebo Estimate [2, 21]: −0.14 | KSS Sleepy/Alert LS Mean [2, 22]: 3.46 | KSS Sleepy/Alert LS Mean Difference vs Placebo Estimate [2, 22]: −0.44 | KSS Sleepy/Alert LS Mean [2, 23]: 3.24 | KSS Sleepy/Alert LS Mean Difference vs Placebo Estimate [2, 23]: −3.61 | KSS Sleepy/Alert LS Mean [2, 24]: 3.85 | KSS Sleepy/Alert LS Mean Difference vs Placebo Estimate [2, 24]: −4.30 | KSS Sleepy/Alert LS Mean [2, 25]: 2.51 | KSS Sleepy/Alert LS Mean Difference vs Placebo Estimate [2, 25]: −0.29 | KSS Sleepy/Alert LS Mean [2, 26]: 5.18 | KSS Sleepy/Alert LS Mean Difference vs Placebo Estimate [2, 26]: −3.32 | KSS Sleepy/Alert LS Mean [2, 27]: 6.07 | KSS Sleepy/Alert LS Mean Difference vs Placebo Estimate [2, 27]: −2.26 | KSS Sleepy/Alert LS Mean [2, 28]: 2.51 | KSS Sleepy/Alert LS Mean Difference vs Placebo Estimate [2, 28]: 0.01 | KSS Sleepy/Alert LS Mean [2, 29]: 3.29 | KSS Sleepy/Alert LS Mean Difference vs Placebo Estimate [2, 29]: 0.24 | KSS Sleepy/Alert LS Mean ([2]; HD: Compound A 112 mg, AVERAGE POST INFUSION START (2.75, 4.75, 6.75 AND 8.75 HOURS)): 4.58 | KSS Sleepy/Alert LS Mean ([2]; HD: Compound A 112 mg, AVERAGE PRIOR TO INFUSION START (14, 10, 6, 2 HOURS PREDOSE)): 2.95 | KSS Sleepy/Alert LS Mean [2, 30]: 1.64 | KSS Sleepy/Alert LS Mean Difference vs Placebo Estimate [2, 30]: −3.26 | KSS Sleepy/Alert LS Mean [2, 31]: 8.46 | KSS Sleepy/Alert LS Mean Difference vs Placebo Estimate [2, 31]: 0.31 | KSS Sleepy/Alert LS Mean [2, 32]: 4.01 | KSS Sleepy/Alert LS Mean Difference vs Placebo Estimate [2, 32]: 0.11 | KSS Sleepy/Alert LS Mean [2, 33]: 4.85 | KSS Sleepy/Alert LS Mean Difference vs Placebo Estimate [2, 33]: −2.00 | KSS Sleepy/Alert LS Mean [2, 34]: 6.46 | KSS Sleepy/Alert LS Mean Difference vs Placebo Estimate [2, 34]: −1.69 | KSS Sleepy/Alert LS Mean [2, 35]: 2.79 | KSS Sleepy/Alert LS Mean Difference vs Placebo Estimate [2, 35]: −0.01 | KSS Sleepy/Alert LS Mean [2, 36]: 7.79 | KSS Sleepy/Alert LS Mean Difference vs Placebo Estimate [2, 36]: −0.71 | KSS Sleepy/Alert LS Mean [2, 37]: 8.07 | KSS Sleepy/Alert LS Mean Difference vs Placebo Estimate [2, 37]: −0.26 | KSS Sleepy/Alert LS Mean [2, 38]: 2.79 | KSS Sleepy/Alert LS Mean Difference vs Placebo Estimate [2, 38]: 0.29 | KSS Sleepy/Alert LS Mean [2, 39]: 2.85 | KSS Sleepy/Alert LS Mean Difference vs Placebo Estimate [2, 39]: −0.20 | KSS Sleepy/Alert LS Mean ([2]; LD: Compound A 44 mg, AVERAGE POST INFUSION START (2.75, 4.75, 6.75 AND 8.75 HOURS)): 6.79 | KSS Sleepy/Alert LS Mean ([2]; LD: Compound A 44 mg, AVERAGE PRIOR TO INFUSION START (14, 10, 6, 2 HOURS PREDOSE)): 3.11 | KSS Sleepy/Alert LS Mean [2, 40]: 3.68 | KSS Sleepy/Alert LS Mean Difference vs Placebo Estimate [2, 40]: −1.22
